Results on 1 molecule are retold here after patent US20020022633A1, “Inhibitors of prenyl-protein transferase” (priority 2000, published 2002).

The target of this experiment is T1, human FPTase (Homo sapiens, UniProt P49354+P49356).
T1 construct: made in house
Briefly: In vitro inhibition of ras farnesyl transferase (FPTase transferase assay). The note with it: recombinant FPTase; 650 nM Ras-CVLS, 100 nM farnesyl diphosphate; 30° C.; read-out: IC50, inhibitory activity against human FPTase. Type of experiment: biochemical. The method, then: In vitro Inhibition of ras Farnesyl Transferase
Transferase Assays. Isoprenyl-protein transferase activity assays are carried out at 30° C. unless noted otherwise. A typical reaction contains (in a final volume of 50 µL): [^3H]farnesyl diphosphate, Ras protein , 50 mM HEPES, pH 7.5, 5 mM MgCl2, 5 mM dithiothreitol, 10 μM ZnCl2, 0.1% polyethyleneglycol (PEG) (15,000-20,000 mw) and isoprenyl-protein transferase. The FPTase employed in the assay is prepared by recombinant expression as described in Omer, C. A., Kral, A. M., Diehl, R. E., Prendergast, G. C., Powers, S., Allen, C. M., Gibbs, J. B. and Kohl, N. E. (1993) Biochemistry 32:5167-5176. After thermally pre-equilibrating the assay mixture in the absence of enzyme, reactions are initiated by the addition of isoprenyl-protein transferase and stopped at timed intervals (typically 15 min) by the addition of 1 M HCl in ethanol (1 mL). The quenched reactions are allowed to stand for 15 m (to complete the precipitation process). After adding 2 mL of 100% ethanol, the reactions are vacuum-filtered through Whatman GFIC filters. Filters are washed four times with 2 mL aliquots of 100% ethanol, mixed with scintillation fluid (10 mL) and then counted in a Beckman LS3801 scintillation counter. […]

Structures are written as SMILES. Where a name gives a salt, the structure may show the parent alone.

The term IC50 denotes the midpoint of a concentration-inhibition curve. As to `N#Cc1ccc2cc1Oc1ccc3ccc(=O)n(c3c1)-c1ccc(cn1)CCc1cncn1C2` [Example 1, 17-Oxo-22,23-dihydro-5H-12,14:18,21-dietheno-6,10-metheno-benzo[d]imidazo [4,3-l][1,5,7,13]oxatriazacyclononadecine-9-carbonitrile dihydrochloride], the IC50 was ≤ 30 µM.
